Measurements reported in patent US8247579B2, “Spirocyclic tetronic acid derivatives” (Bayer Cropscience AG, priority 2007, dated 2012).

Legend:
[1] = tested on: mixed thrips population (Frankliniella occidentalis); assay: Frankliniella occidentalis (FRANOC spray treatment); type: in vivo; settings: bean leaf disks
Protocol: Frankliniella occidentalis (FRANOC Spray Treatment)
If addition of ammonium salts is required, these are added by pipette in a concentration of 1000 ppm after dilution of the respective finished solution of the preparation.

[2] = Determination of the logP values by HPLC (EEC Directive 79/831 Annex V.A8); type: physicochemical; settings: reversed-phase C18 HPLC column, reversed-phase C18, 43° C., acidic range (pH 2.3)
Protocol: Determination of the LogP Values The logP values given in the table were determined in accordance with EEC Directive 79/831 Annex V .A8 by HPLC (High Performance Liquid Chromatography) on a reversed-phase column (C18). Temperature: 43° C. Mobile phases for the determination in the acidic range (pH 2.3): 0.1% aqueous phosphoric acid, acetonitrile; linear gradient from 10% acetonitrile to 90% acetonitrile The calibration was carried out using unbranched alkan-2-ones (having 3 to 16 carbon atoms) with known logP values (determination of the logP values by the retention times using linear interpolation between two successive alkanones).

[3] = tested on: larvae of the mustard beetle (Phaedon cochleariae); assay: Phaedon test (PHAECO spray treatment); settings: application rate of 100 g/ha, Chinese cabbage discs
[4] = tested on: Tetranychus urticae, resistant; assay: Tetranychus urticae (TETRUR RAUS) spray test, resistant mites on bush bean plants; type: in vivo; settings: concentration of 5 ppm, spraying
Protocol: Tetranychus urticae (TETRUR RAUS)
Bush bean plants (Phaseolus vulgaris) infested with a mixed population of resistant greenhouse red spider mites (Tetranychus urticae, resistant) are treated by spraying with the active compound preparation of the desired concentration.
(§1) After the desired period of time, the kill in % is determined.

[5] = tested on: Green peach aphid (Myzus persicae); assay: Myzus persicae test (MYZUPE), dip treatment of cabbage leaves; type: in vivo; settings: 100 ppm
Protocol: Myzus persicae Test (MYZUPE)
(§2) If addition of ammonium salts, penetrants or ammonium salts and penetrants is required, these are added by pipette in a concentration of 1000 ppm after dilution of the respective finished solution of the preparation.
Cabbage leaves (Brassica oleracea) which are heavily infested by the Green peach aphid (Myzus persicae) are treated by being dipped into the active compound preparation of the desired concentration.
as §1

[6] = tested on: greenhouse red spider mite (Tetranychus urticae sensitive); assay: Tetranychus test, OP-resistant/dip treatment (TETRUR); type: in vivo; settings: dip
Protocol: Tetranychus Test, OP-Resistant/Dip Treatment (TETRUR)
as §2

SMILES	chromatographic logP [2]	effect in % (thrips killed) ([1]; application rate of 500 g/ha)	effect in % (thrips killed) ([1]; application rate of 100 g/ha)	effect in % (beetle larvae killed) [3]	kill in % [4]	MYZUPE % 6 d (kill in %) [5]	TETRUR % 7 d (effect in %) ([6]; 0.78125 ppm)	TETRUR % 7 d (effect in %) ([6]; 1.5625 ppm)	TETRUR % 7 d (effect in %) ([6]; 3.125 ppm)
CCC(C)(C)CC(=O)OC1=C(c2c(C)cc(C)cc2C)C(=O)OC12CCCC2 [Example I-3]					97%				
Cc1cc(C)c(C2=C(OC(=O)CC(C)(C)C)C3(CCCC3)OC2=O)c(C)c1 [spiromesifen, reference compound]		0%	0%	33%	30%	30%	0%	30%	50%

Further lines, with some results ahead:

chromatographic logP [2]	SMILES	effect in % (thrips killed) ([1]; application rate of 500 g/ha)	effect in % (thrips killed) ([1]; application rate of 100 g/ha)	effect in % (beetle larvae killed) [3]	kill in % [4]	MYZUPE % 6 d (kill in %) [5]	TETRUR % 7 d (effect in %) ([6]; 0.78125 ppm)	TETRUR % 7 d (effect in %) ([6]; 1.5625 ppm)	TETRUR % 7 d (effect in %) ([6]; 3.125 ppm)
6.94	Cc1cc(C)c(C2=C(OC(=O)CC34CC5CC(CC(C5)C3)C4)C3(CCCC3)OC2=O)c(C)c1 [Example I-1]	80%							
3.85	Cc1cc(C)c(C2=C(OC(=O)CC3(C)OCCO3)C3(CCCC3)OC2=O)c(C)c1 [Example I-2]		63%	67%					
4.45	COC(C)(C)CC(=O)OC1=C(c2c(C)cc(C)cc2C)C(=O)OC12CCCC2 [Example I-5]					55%	30%	50%	90%
